Assay results taken from PubChem BioAssay (NCI).
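The compound was tested at five concentrations on cells cultured in 96-well plates, with a 48-hour exposure period. The concentration for 50% growth inhibition is given as GI50. The concentration for full growth arrest is given as TGI.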

Assays:
Assay in all cases: inhibition of tumour cell growth, NCI panel, 48 h
[1] = tested on: IGROV1 ovarian
[2] = tested on: A498 renal
[3] = tested on: HCT-116 colon
[4] = tested on: SF-539 CNS
[5] = tested on: RPMI-8226 leukemia
[6] = tested on: HCC-2998 colon
[7] = tested on: MDA-MB-435
[8] = tested on: ACHN renal
[9] = tested on: NCI-H522 lung
[10] = tested on: OVCAR-5 ovarian
[11] = tested on: T-47D breast
[12] = tested on: OVCAR-4 ovarian
[13] = tested on: M14 melanoma
[14] = tested on: NCI-H226 lung
[15] = tested on: CCRF-CEM leukemia
[16] = tested on: MCF7 breast
[17] = tested on: SNB-19 CNS
[18] = tested on: MDA-MB-468 breast
[19] = tested on: HCT-15 colon
[20] = tested on: LOX IMVI melanoma
[21] = tested on: SK-MEL-5 melanoma
[22] = tested on: SK-MEL-2 melanoma
[23] = tested on: UO-31 renal
[24] = tested on: A549 NSCLC
[25] = tested on: MALME-3M melanoma
[26] = tested on: 786-0 renal
[27] = tested on: OVCAR-8 ovarian
[28] = tested on: SNB-75 CNS
[29] = tested on: CAKI-1 renal
[30] = tested on: NCI-H23 lung
[31] = tested on: SR leukemia
[32] = tested on: BT-549 breast
[33] = tested on: SF-268 CNS
[34] = tested on: DU-145 prostate
[35] = tested on: K-562 leukemia
[36] = tested on: SK-OV-3 ovarian
[37] = tested on: HT29 colon
[38] = tested on: KM12 colon
[39] = tested on: SW-620 colon
[40] = tested on: MOLT-4 leukemia
[41] = tested on: TK-10 renal
[42] = tested on: UACC-62 melanoma
[43] = tested on: SK-MEL-28 melanoma
[44] = tested on: COLO 205 colon
[45] = tested on: HL-60(TB) leukemia
[46] = tested on: UACC-257 melanoma
[47] = tested on: PC-3 prostate
[48] = tested on: EKVX NSCLC
[49] = tested on: RXF 393 renal
[50] = tested on: SF-295 CNS
[51] = tested on: HS 578T breast
[52] = tested on: HOP-92 NSCLC
[53] = tested on: U251 CNS
[54] = tested on: OVCAR-3 ovarian
[55] = tested on: NCI-H460 lung
[56] = tested on: SN12C renal
[57] = tested on: MDA-MB-231 breast
[58] = tested on: HOP-62 NSCLC

In the case of `O=C(/C=C/c1ccc(Cl)cc1)c1nc2ccccc2n1Cc1ccc(F)cc1`, the GI50 [1] is reported as 14.5 µM, the TGI [1] is reported as 41.9 µM and the GI50 [2] is reported as > 100 µM. For the same compound, the TGI [2] was > 100 µM, the GI50 [3] was 11.8 µM and the TGI [3] was 25.2 µM. It also gave a GI50 [4] of 14.1 µM, a TGI [4] of 27.9 µM and a GI50 [5] of 4.59 µM. For the same compound, the TGI [5] was 53 µM, the GI50 [6] was 14.7 µM and the TGI [6] was 28.5 µM. The GI50 [7] was 11.4 µM, the TGI [7] was 29.4 µM and the GI50 [8] was 17.7 µM. It also gave a TGI [8] of 51.4 µM, a GI50 [9] of 13.7 µM and a TGI [9] of 31.4 µM. For the same compound, the GI50 [10] was 17.5 µM, the TGI [10] was 37.2 µM and the GI50 [11] was 5.89 µM. For the same compound, the TGI [11] was 33.9 µM, the GI50 [12] was 23.4 µM and the TGI [12] was > 100 µM. For the same compound, the GI50 [13] was 14.1 µM, the TGI [13] was 32 µM and the GI50 [14] was 20.8 µM. For the same compound, the TGI [14] was 62.1 µM, the GI50 [15] was 4.12 µM and the TGI [15] was > 100 µM. For the same compound, the GI50 [16] was 3.76 µM, the TGI [16] was 76.4 µM and the GI50 [17] was 14.7 µM. For the same compound, the TGI [17] was 33 µM, the GI50 [18] was 10.4 µM and the TGI [18] was 28 µM. For the same compound, the GI50 [19] was 7.86 µM, the TGI [19] was 23.4 µM and the GI50 [20] was 4.97 µM. The TGI [20] was 18.1 µM, the GI50 [21] was 15.2 µM and the TGI [21] was 36.2 µM. For the same compound, the GI50 [22] was 14.5 µM, the TGI [22] was 40.1 µM and the GI50 [23] was 9.9 µM. The TGI [23] was 22 µM, the GI50 [24] was 22.9 µM and the TGI [24] was > 100 µM. For the same compound, the GI50 [25] was 15.2 µM, the TGI [25] was 34.3 µM and the GI50 [26] was 13.2 µM. It also gave a TGI [26] of 28.9 µM, a GI50 [27] of 13.9 µM and a TGI [27] of 42.5 µM. For the same compound, the GI50 [28] was 2.9 µM, the TGI [28] was > 100 µM and the GI50 [29] was 7.89 µM. For the same compound, the TGI [29] was 43 µM, the GI50 [30] was 14.4 µM and the TGI [30] was 36.8 µM. For the same compound, the GI50 [31] was 5.12 µM, the TGI [31] was > 100 µM and the GI50 [32] was 11.8 µM. The TGI [32] was 30.4 µM, the GI50 [33] was 19.2 µM and the TGI [33] was > 100 µM. For the same compound, the GI50 [34] was 16.5 µM, the TGI [34] was 63.3 µM and the GI50 [35] was 6.18 µM. The TGI [35] was > 100 µM, the GI50 [36] was 41.2 µM and the TGI [36] was > 100 µM. For the same compound, the GI50 [37] was 13.1 µM, the TGI [37] was 31.5 µM and the GI50 [38] was 11.9 µM. For the same compound, the TGI [38] was 45.7 µM, the GI50 [39] was 8.58 µM and the TGI [39] was 28.6 µM. For the same compound, the GI50 [40] was 4.15 µM, the TGI [40] was > 100 µM and the GI50 [41] was 20 µM. For the same compound, the TGI [41] was 75.8 µM, the GI50 [42] was 13.2 µM and the TGI [42] was 30.5 µM. It also gave a GI50 [43] of 14.9 µM, a TGI [43] of 32.5 µM and a GI50 [44] of 14.8 µM. For the same compound, the TGI [44] was 32.9 µM, the GI50 [45] was 9.53 µM and the TGI [45] was 47.1 µM. The GI50 [46] was 19.5 µM, the TGI [46] was 86.8 µM and the GI50 [47] was 14.3 µM. The TGI [47] was 58.5 µM, the GI50 [48] was 17.5 µM and the TGI [48] was 44.9 µM. The GI50 [49] was 7.71 µM, the TGI [49] was 21.7 µM and the GI50 [50] was 14.3 µM. The TGI [50] was 33.9 µM, the GI50 [51] was 19.8 µM and the TGI [51] was > 100 µM. It also gave a GI50 [52] of 7.12 µM, a TGI [52] of 79.7 µM and a GI50 [53] of 10.3 µM. It also gave a TGI [53] of 25.2 µM, a GI50 [54] of 5.05 µM and a TGI [54] of 22.2 µM. For the same compound, the GI50 [55] was 11 µM, the TGI [55] was 28.4 µM and the GI50 [56] was 18.7 µM. It also gave a TGI [56] of 70.9 µM, a GI50 [57] of 16.4 µM and a TGI [57] of 42 µM. The GI50 [58] was 14.8 µM and the TGI [58] was 36.8 µM.
